From the pKa sets of Baltruschat and Czodrowski (2020) come the findings set out here.

SMILES strings stand for the structures.

Take `CCn1c(=O)n(C)c2ccccc21`: the pKa (as a rule, the pH at which an ionisable group is half protonated) (basic group) was -3.7.
Turning to `Cc1nc(C(=O)[O-])ccc1O`, the pKa came out at 9.49 (acidic group) and 5.13 (basic group).
Where the note is “basic group”, `c1cncc(-c2ccco2)c1` came in with a pKa of 4.62.
`O=C(O)C(CO)[NH2+]Cc1cc([N+](=O)[O-])ccc1O` (stereo unspecified) returned a pKa (acidic group) of 2.15.
As for `N[C@@H]1CCC[C@@H]1O`, where the note is “basic group”, the pKa was found to be 9.7.
Same read-out and setting: the figure for `CCCc1ccc(C)nn1` is 4.25; for `C1CSCN1` it is 6.31.
Still for that read-out and setting: the same measure for `CCCCNCCN`: 10.3.
Consider `Cc1cc(N)ccc1S(=O)(=O)Nc1nccs1`, for which the pKa (acidic group) worked out at 7.3.
In the case of `CCc1nc2ccccc2[nH]1`, the pKa (basic group) turned out to be 6.2.
Under “acidic group”, `O=C(O)Cc1nnn[nH]1` had a pKa of 3.1.
On to `O=C1NCc2[nH]cnc2N1`, for which, where the note is “acidic group”, the pKa came to 11.5.
In turn, `CCCCCC/N=C/c1c(C)cnc(C)c1O` had a pKa (basic group) of 6.22.
In turn, `Cc1ccc(NS(=O)(=O)c2ccccc2)cc1` displayed a pKa (acidic group) of 8.63.
Consider `C[NH+](C)Cc1c(O)c(O)c(O)c(C[NH+](C)C)c1C(=O)[O-]`, for which the pKa (acidic group) was 6.95.
For `NC[C@@H](O)[C@H]1NC(N)=N[C@@H]1C(=O)[O-]`, the pKa (basic group) came out at 11.9.
`O=[N+]([O-])c1ccc(S(=O)O)cc1` displayed a pKa (acidic group) of 1.86.
For the compound `CCC(O)C(C(=O)O)c1ccc(-c2ccccc2)cc1` (stereo unspecified), the pKa (acidic group) came to 4.16.
`CN(C)[C@H]1CCCC[C@@H]1O` returned a pKa (basic group) of 10.4.
Same read-out and setting: the same measure for `COC(=O)[C@@H]1[C@H](O)C[C@@H]2CC[C@H]1N2C`: 8.85.
Still for that read-out and setting: the figure for `Cc1ccc(N)cc1Br` is 4.02.
For `Cc1ccc(C(=O)S)cc1`, the pKa (acidic group) is 2.59 and the pKa (basic group) is -5.19.
For the setting “acidic group”, `S=C(NCc1ccccc1)c1ccccc1` had a pKa of 12.2.
`Cc1ncnc2c1NCCN2` displayed a pKa (basic group) of 6.74.
As for `C=C(C)[C@H]1C[NH2+][C@H](C(=O)O)[C@H]1CC(=O)O`, the pKa (acidic group) is 2.1.
The compound `CN(C)CC[NH+](C)C` displayed a pKa (basic group) of 6.04.
Same read-out and setting: the same measure for `c1ccc(-c2cnc(-c3ccccc3)o2)cc1`: 0.84.
On to `[O-]c1ccc(O)cc1Br`, for which the pKa (acidic group) turned out to be 10.7.
With `Cc1cc(N)c(O)cc1C`, the pKa is 10.4 (acidic group) and 5.28 (basic group).
In the case of `COc1cc(C#N)cc(C(=O)N[C@@H]2C[C@H]3CC[C@@H](C2)N3Cc2ccccc2)c1OC`, the pKa (basic group) came out at 8.7.
In turn, `CC(=O)c1cccc(NC(N)=S)c1` showed a pKa (acidic group) of 12.1.
The same measure, in the same setting: the same measure for `O=c1cccccc1O`: 6.87.
Under “basic group”, `C[NH+]1CCCC1c1cncc2[nH]c3ccccc3c12` (stereo unspecified) returned a pKa of 5.17.
With `CNC(=O)/C=C\C(=O)O`, the pKa (acidic group) amounted to 3.98.
Under “basic group”, `Brc1ccc(Nc2ccccc2)cc1` came in with a pKa of 1.73.
`Nc1nccc2c1ncn2CCOCP(=O)([O-])[O-]`: under “basic group”, the pKa is 7.87.
On the same count and under the same terms, the figure for `COc1cnccc1C=O` is 4.45.
For `OC(O)=C(O)c1ccccc1`, the pKa (acidic group) turned out to be 6.39.
Still for that read-out and setting: the same measure for `O=C([O-])[C@@H]1O[C@H](Oc2ccc3[nH+]ccc(O)c3c2)[C@@H](O)[C@H](O)[C@H]1O`: 3.7.
The same measure, in the same setting: the same measure for `O=[N+]([O-])c1cccc(-c2ccc(O)cc2)c1`: 9.14; for `CN1C(=O)N/C(=C\c2ccccc2)C1=O`: 9.6.
`CCN(CC)CC(=O)Nc1ccccc1`: the pKa (basic group) is 8.
Still for that read-out and setting: the same measure for `C[NH+](C)c1ccc(N)cc1`: 3.73.
Consider `Oc1ccc(Cl)cc1`, for which the pKa (acidic group) stood at 9.29.
The compound `OC[C@@H]1O[C@H](n2ccc3c2ncn2ccnc32)[C@@H](O)[C@H]1O` gave a pKa (basic group) of 5.49.
On the same count and under the same terms, the same measure for `COc1cc2c(cc1OC)[C@]13CCN4CC5=CCO[C@@H]6CC(=O)N2[C@@H]1[C@@H]6[C@@H]5C[C@@H]43`: 5.86; for `Cc1cnc2c(c1)c(C)c(C)c1cccnc12`: 5.34.
For the compound `Cc1cc(S(=O)(=O)N(CCO)CCO)cc(C)c1O`, the pKa (acidic group) is 8.25.
On to `CC(=O)n1cnc2ccccc21`, for which, under “basic group”, the pKa turned out to be 1.8.
Still for that read-out and setting: the figure for `CC(C)N/C=[NH+]/c1ccc(-c2cncn2C)cc1` is 6.51.
`COc1cccc(C)c1C(=O)O` had a pKa (acidic group) of 3.46.
Take `[O-]c1ncnc2nc[nH]c12`: the pKa runs as follows: (acidic group) 12.1; (basic group) 8.81.
Under “basic group”, `Cc1cnc(C)cn1` showed a pKa of 1.95.
In turn, `Nc1ccc(NS(=O)(=O)c2ccccc2)cc1` returned a pKa (acidic group) of 9.05.
Same read-out and setting: the figure for `c1cc[n+]2c(c1)C[n+]1ccccc1C2` is 8.12.
The same measure, in the same setting: the figure for `CN(C)c1cccc(/C(=N\O)C(F)(F)F)c1` is 9.3.
As for `Nc1nc(N)c2cn[nH]c2n1`, the pKa (basic group) amounted to 5.58.
Turning to `Oc1onc(-c2ccccc2)c1Br`, the pKa (acidic group) is 2.3.
Compound `Cc1ccc(Nc2ccccc2)cc1` registered a pKa (basic group) of 1.16.
`O=C(O)/C=C/c1ccccc1O` registered a pKa (acidic group) of 4.56.
On the same count and under the same terms, the same measure for `O=C(O)c1cc(Cl)cc([N+](=O)[O-])c1`: 2.17; for `CC(C)(C#N)CC(=O)O`: 4.04.
Consider `CN(C)c1cccc2c(S(=O)(=O)NCC[NH+](C)C)cccc12`, for which the pKa was 8.33 (acidic group) and 3.57 (basic group).
With `CCn1cccc(O)c1=O`, where the note is “acidic group”, the pKa turned out to be 8.99.
Regarding `Cc1cc(C)n(-c2cccc[nH+]2)n1`, where the note is “basic group”, the pKa is -2.4.
Same read-out and setting: the same measure for `[O-]c1ccncc1Br`: 9.4; for `CCc1cc(-c2ccccc2)nnc1NCC[NH+]1CCOCC1`: 4.37; for `Nc1ncnc2scnc12`: 2.77.
Still for that read-out and setting: the same measure for `Cc1cc(Cn2[nH+]c(C)cc2C)n[nH]1`: 1.2; for `COc1ccc(C(N)=O)cc1`: -1.6.
`O=[N+]([O-])c1ccc(S(=O)(=O)Nc2ccccc2)cc1` displayed a pKa (acidic group) of 7.41.
Compound `[O-]c1c(Cl)c(Cl)cc(Cl)c1CN1CCOCC1` displayed a pKa (basic group) of 8.23.
Compound `Cc1ccccc1/C(=N\CCC[NH+](C)C)c1ccccc1N` had a pKa (basic group) of 3.82.
As to `CCSC(=O)c1cccc(Br)c1`, under “basic group”, the pKa is -5.53.
For the setting “basic group”, `Nc1ccc(-c2ncc(-c3ccc(Cl)cc3)o2)cc1` returned a pKa of 2.87.
`O=C(O)CSc1cccc([N+](=O)[O-])c1`: the pKa (acidic group) is 3.4.
Regarding `CC(C(N)=O)S(=O)(=O)NC(N)=O` (stereo unspecified), under “acidic group”, the pKa was 5.21.
With `CC(C)Nc1ncnc2c1cnn2C`, the pKa (basic group) worked out at 4.22.
Compound `O=c1oc2cc(O)ccc2cc1-c1nc2ccccc2s1` showed a pKa (acidic group) of 7.02.
For the compound `CCOC(=O)c1cnc2cc3c(cc2c1OCC)OCO3`, the pKa (basic group) was determined as 4.09.
Take `C(COCCc1nnn[nH]1)OCCc1nnn[n-]1`: the pKa (acidic group) was 5.37.
As for `CCCCCC(C)N` (stereo unspecified), the pKa (basic group) is 11.2.
Same read-out and setting: the figure for `Cc1ccc(-c2ncc(-c3ccccc3)o2)cc1` is 1.04.
`CC/C=C/CC(=O)N[C@H]1C(=O)N2[C@H]1SC(C)(C)[C@H]2C(=O)O` registered a pKa (acidic group) of 2.84.
With `CN(C)CCCC(=O)Oc1ccccc1`, where the note is “basic group”, the pKa came to 9.7.
The same measure, in the same setting: the same measure for `Nc1nccnn1`: 4.
In the case of `CCCCN1CCCCC1C(=O)Nc1c(C)cccc1C` (stereo unspecified), for the setting “basic group”, the pKa came to 7.27.
As to `Cn1ncc2c(=O)[nH]cnc21`, the pKa (acidic group) was 9.26.
The compound `CC(C)NNC1CCN(C)CC1` came in with a pKa (basic group) of 9.07.
The compound `Cc1cccc2ccc(O)cc12` displayed a pKa (acidic group) of 9.42.
`Oc1c(I)cc(Cl)c2cccnc12`: the pKa amounted to 7.9 (acidic group) and 2.61 (basic group).
`Nc1cc([N+](=O)[O-])c2ccccc2c1` came in with a pKa (basic group) of 2.62.
The same measure, in the same setting: the figure for `Nc1cccnc1N` is 6.84.
On to `C/C(=C\C=C\C(C)C(=O)O)[C@H]1C[NH2+][C@H](C(=O)[O-])[C@H]1CC(=O)[O-]` (stereo partly specified), for which, for the setting “acidic group”, the pKa was determined as 4.93.
Compound `CCOCCn1c(N2CCC[NH+](CCCCn3cccn3)CC2)nc2ccccc21` had a pKa (basic group) of 4.9.
The same measure, in the same setting: the figure for `CNc1ncccn1` is 3.82.
`Cc1ccccc1C(=S)Nc1ccccc1`: the pKa (acidic group) turned out to be 10.9.
For `Cc1cc(C(=O)O)cs1`, the pKa (acidic group) turned out to be 4.24.
`CC(C)NNC1CCN(C(C)C)CC1` yielded a pKa (basic group) of 9.55.
On to `O=[N+]([O-])CCO`, for which the pKa (acidic group) stood at 9.4.
For the compound `N#CCC(N)c1ccccc1` (stereo unspecified), the pKa (basic group) was found to be 6.7.
On the same count and under the same terms, the figure for `COc1ccc(Cl)c2cccnc12` is 4.13; for `Cc1ccc(-c2cnc(-c3ccc(Cl)cc3)o2)cc1` it is 0.58.
On to `C=C(C)/C=C(\O)C=C(C)C`, for which, for the setting “acidic group”, the pKa worked out at 10.8.
Still for that read-out and setting: the figure for `O=S(=O)([O-])c1cc(O)cc2cn[nH]c12` is 9.65.
For `C#CC(C)(C)NC(C)(C)CC`, the pKa (basic group) amounted to 9.
On the same count and under the same terms, the same measure for `c1nc2c(ccc3c4c(cnc32)CCCC4)c2c1CCCC2`: 6.23.
Consider `O=C1CC(c2ccccc2)NC(=O)N1` (stereo unspecified), for which the pKa (acidic group) was determined as 11.2.
Consider `[NH3+]C(Cc1n[nH]c2ccccc12)C(=O)O` (stereo unspecified), for which the pKa (acidic group) was 2.2.
With `Nc1nc2cc3c(cc2[nH]1)CCCC3`, the pKa (basic group) is 7.69.
For `Cc1nc2ccccc2c(NCCC[NH+](C)C)c1[N+](=O)[O-]`, under “basic group”, the pKa was 5.35.
For the compound `Nc1cnc2c(N)nc(N)nc2n1`, the pKa (basic group) is 6.3.
Take `CC(=O)NS(=O)(=O)c1ccccc1C(=O)O`: for the setting “acidic group”, the pKa came out at 3.1.
The compound `CC[NH+](CC)[C@H]1CCC[C@@H]1N(C)C` came in with a pKa (basic group) of 5.76.
In the case of `Nc1[nH+]c2nc[nH]c2c(N)[n+]1O`, the pKa (acidic group) is 1.
In the case of `[O-]c1ccncn1`, the pKa (basic group) was found to be 8.59.
As for `OCCc1ccncc1`, the pKa (basic group) is 5.68.
On to `O=[N+]([O-])c1cc[n+](O)cc1`, for which the pKa (acidic group) is -1.7.
`O=[Se](O)c1ccc(-c2ccccc2)cc1` gave a pKa (acidic group) of 4.53.
Take `CCCCCCCCCCCCCCCCN(CC(C)O)CC(C)O` (stereo unspecified): the pKa (basic group) was 9.19.
On to `O=C(O)c1cc([N+](=O)[O-])ccc1O`, for which, for the setting “acidic group”, the pKa was 2.15.
As for `C/C=C1/CN2[C@@H]3C[C@H]1C1[C@@H](O)[C@]4(C[C@@H]12)c1ccccc1N(C)[C@@H]34` (stereo partly specified), the pKa (basic group) was 8.5.
In turn, `C/C(O)=N\[N+](C)(C)C` yielded a pKa (acidic group) of 5.42.
Turning to `CNC[C@H](O)c1cccc(O)c1`, the pKa (acidic group) was found to be 9.84 and the pKa (basic group) is 8.77.
`CCN1CCCC1CNS(=O)(=O)c1ccc(OC)c(OC)c1OC` (stereo unspecified) came in with a pKa (basic group) of 8.7.
For `CC(C)(C)CCCCc1ccc(O)cc1`, the pKa (acidic group) worked out at 11.2.
On the same count and under the same terms, the same measure for `C=C(C)[C@@H]1C[NH2+][C@H](C(=O)O)[C@@H]1CC(=O)O`: 2.09.
As to `Nc1ccc(S(=O)(=O)Nc2cnccn2)cc1`, the pKa (basic group) is 1.77.
On the same count and under the same terms, the same measure for `CCC(O)CN(CC(C)O)C(C)(C)C` (stereo unspecified): 9.5.
